In patent US20040242660A1, “Substituted oxazolidinones for combinational therapy” (priority 2001, published 2004):
Where two headings read alike, the source gives them in different places.

Target: human factor Xa (FXa) (Homo sapiens, UniProt P00742)
Assay: Measurement of factor Xa inhibition (chromogenic substrate)
Assay type: biochemical
Method: a.1) Measurement of Factor Xa Inhibition
In this case, factor Xa eliminates p-nitroaniline from the chromogenic substrate.
The test substances were dissolved in various concentrations in DMSO and incubated with human FXa (0.5 nmol/l dissolved in 50 mmol/l tris buffer [C,C,C-tris(hydroxymethyl)-aminomethane], 150 mmol/l NaCl, 0.1% BSA (bovine serum albumine), pH=8,3) at 25° C. for 10 minutes. Pure DMSO serves as control.

Chain of human factor Xa (FXa) (P00742 235-488 limits assumed): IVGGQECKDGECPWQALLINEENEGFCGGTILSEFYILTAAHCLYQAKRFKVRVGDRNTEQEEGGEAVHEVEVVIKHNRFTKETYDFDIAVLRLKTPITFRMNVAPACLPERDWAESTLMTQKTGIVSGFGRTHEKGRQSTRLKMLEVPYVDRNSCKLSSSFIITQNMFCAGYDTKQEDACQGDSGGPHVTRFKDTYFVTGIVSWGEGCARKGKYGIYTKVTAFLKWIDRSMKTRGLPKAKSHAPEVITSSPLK
Chain of human factor Xa (FXa) (P00742 41-179 partner limits assumed): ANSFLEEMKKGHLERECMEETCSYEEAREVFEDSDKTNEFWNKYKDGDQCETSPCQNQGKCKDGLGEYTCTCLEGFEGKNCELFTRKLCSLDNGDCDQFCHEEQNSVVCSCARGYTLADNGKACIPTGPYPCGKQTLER

Compound	IC50 (factor Xa inhibition) [nM]	IC50 [nM]	further results
O=C(NC[C@H]1CN(c2ccc(N3CC[S+]([O-])CC3)c(F)c2)C(=O)O1)c1ccc(Cl)s1 [Example 14, 5-Chloro-N-({(5S)-3-[3-fluoro-4-(1-oxo-1[lambda]^4,4-thiazinan-4-yl)phenyl]-2-oxo-1,3-oxazolidin-5-yl}methyl)-2-thiophenecarboxamide]	1100		
O=C(NC[C@H]1CN(c2ccc(N3CCS(=O)(=O)CC3)c(F)c2)C(=O)O1)c1ccc(Cl)s1 [Example 15, 5-chloro-N-({(5S)-3-[4-(1,1-dioxo-1[lambda]^6,4-thiazinan-4-yl)-3-fluorophenyl]-2-oxo-1,3-oxazolidin-5-yl}methyl)-2-thiophenecarboxamide]	210		
O=C(NC[C@H]1CN(c2ccc(N3CCCC3)cc2)C(=O)O1)c1ccc(Cl)s1 [Example 18, 5-Chloro-N-({(5S)-2-oxo-3-[4-(1-pyrrolidinyl)phenyl]-1,3-oxazolidin-5-yl}methyl)-2-thiophenecarboxamide]	40		
CCN(CC)c1ccc(N2C[C@H](CNC(=O)c3ccc(Cl)s3)OC2=O)cc1 [Example 19, 5-Chloro-N-({(5S)-2-oxo-3-[4-(diethylamino)phenyl]-1,3-oxazolidin-5-yl}methyl)-2-thiophenecarboxamide]	270		
O=C(NC[C@H]1CN(c2ccc(N3CCOCC3)c(Cl)c2)C(=O)O1)c1ccc(Cl)s1 [Example 37, 5-Chloro-N-{[(5S)-3-(3-chloro-4-morpholinophenyl)-2-oxo-1,3-oxazolidin-5-yl]methyl}-2-thiophenecarboxamide]	33		
O=C(NC[C@H]1CN(c2ccc(S(=O)(=O)N3CCOCC3)cc2)C(=O)O1)c1ccc(Cl)s1 [Example 38, 5-Chloro-N-({(5S)-3-[4-(4-morpholinylsulfonyl)phenyl]-2-oxo-1,3-oxazolidin-5-yl}methyl)-2-thiophenecarboxamide]	2000		
O=C(NC[C@H]1CN(c2ccc(S(=O)(=O)N3CCC3)cc2)C(=O)O1)c1ccc(Cl)s1 [Example 39, 5-Chloro-N-({(5S)-3-[4-(1-azetidinylsulfonyl)phenyl]-2-oxo-1,3-oxazolidin-5-yl}methyl)-2-thiophenecarboxamide]	840		
CN(C)S(=O)(=O)c1ccc(N2C[C@H](CNC(=O)c3ccc(Cl)s3)OC2=O)cc1 [Example 40, 5-Chloro-N-[((5S)-3-{4-[(dimethylamino)sulfonyl]phenyl}-2-oxo-1,3-oxazolidin-5-yl)methyl]-2-thiophenecarboxamide]	90		
O=C(NCC1CN(c2ccc(N3CCCC3=O)cc2)C(=O)O1)c1cccs1 (stereo not shown) [Example 41, N-({2-oxo-3-[4-(2-oxo-1-pyrrolidinyl)phenyl]-1,3-oxazolidin-5-yl}methyl)-2-thiophenecarboxamide]	1300		
Cc1ccc(C(=O)NCC2CN(c3ccc(N4CCCC4=O)cc3)C(=O)O2)s1 (stereo not shown) [Example 42, 5-Methyl-N-({2-oxo-3-[4-(2-oxo-1-pyrrolidinyl)phenyl]-1,3-oxazolidin-5-yl}methyl)-2-thiophenecarboxamide]	160		
O=C(NCC1CN(c2ccc(N3CCCC3=O)cc2)C(=O)O1)c1ccc(Br)s1 (stereo not shown) [Example 43, 5-Bromo-N-({2-oxo-3-[4-(2-oxo-1-pyrrolidinyl)phenyl]-1,3-oxazolidin-5-yl}methyl)-2-thiophenecarboxamide]	14		
CC1Oc2cc(N3C[C@H](CNC(=O)c4ccc(Cl)s4)OC3=O)ccc2N(C)C1=O (stereo partly shown) [Example 50]			IC50 (table of Examples 48-58): 1150 nM
CN1C(=O)COc2cc(N3C[C@H](CNC(=O)c4ccc(Cl)s4)OC3=O)ccc21 [Example 51]			IC50 (table of Examples 48-58): 1190 nM
O=C(NC[C@H]1CN(c2ccc3c(c2)OCc2nccn2-3)C(=O)O1)c1ccc(Cl)s1 [Example 53]			IC50 (table of Examples 48-58): 740 nM
N#Cc1cc(N2C[C@H](CNC(=O)c3ccc(Cl)s3)OC2=O)ccc1N1CCCC1 [Example 54]			IC50 (table of Examples 48-58): 130 nM
O=C(NC[C@H]1CN(c2ccc(N3CCOC3=O)cc2)C(=O)O1)c1ccc(Cl)s1 [Example 55]			IC50 (table of Examples 48-58): 40 nM
O=C(NC[C@H]1CN(c2ccc(N3CCCC3=O)cc2)C(=O)O1)c1ccc(Br)s1 [Example 56]			IC50 (table of Examples 48-58): 4 nM
Cc1ccc(C(=O)NC[C@H]2CN(c3ccc(N4CCCC4=O)cc3)C(=O)O2)s1 [Example 57]			IC50 (table of Examples 48-58): 580 nM
O=C(NCC1CN(c2ccccc2)C(=O)O1)c1ccc(Cl)s1 (stereo not shown) [Example 96, 5-Chloro-N-[(2-oxo-3-phenyl-1,3-oxazolidin-5-yl)methyl]-2-thiophenecarboxamide]	2000		
CC(=O)N(c1ccc(N2CC(CNC(=O)c3ccc(Cl)s3)OC2=O)cc1)C1CC1 (stereo not shown) [Example 98, N-[(3-{4-[Acetyl(cyclopropyl)amino]phenyl}-2-oxo-1,3-oxazolidin-5-yl)methyl]-5-chloro-2-thiophenecarboxanmide]	50		
NC1CCN(c2ccc(N3CC(CNC(=O)c4ccc(Cl)s4)OC3=O)cc2F)C1 (stereo not shown) [Example 126]		13	
O=C(NC[C@H]1CN(c2ccc(N3CCOCC3=O)c(F)c2)C(=O)O1)c1ccc(Br)s1 [Example 127]		0.7	

Further lines, with some results ahead:

IC50 (factor Xa inhibition) [nM]	IC50 [nM]	Compound	further results
	2	O=C(NC[C@H]1CN(c2ccc(N3CCCC3=O)c(F)c2)C(=O)O1)c1ccc(Br)s1 [Example 128]	
	1	O=C(NC[C@H]1CN(c2ccc(N3CCCCC3=O)cc2)C(=O)O1)c1ccc(Br)s1 [Example 129]	
	3.3	O=C(NC[C@H]1CN(c2ccc(N3CCCC3=O)c(F)c2)C(=O)O1)c1ccc(Cl)s1 [Example 130]	
	850	O=C(NCC1CN(c2ccc(C3CCCCC3)cc2)C(=O)O1)c1ccc(Cl)s1 (stereo not shown) [Example 131]	
	120	O=C(NCC1CN(c2ccc(N3CCC3)c(F)c2)C(=O)O1)c1ccc(Cl)s1 (stereo not shown) [Example 132]	
	62	O=C(NCC1CN(c2ccc(N3CCC(O)C3)c(F)c2)C(=O)O1)c1ccc(Cl)s1 (stereo not shown) [Example 133]	
	480	O=C(NCC1CN(c2ccc(N3CCCC(O)C3)c(F)c2)C(=O)O1)c1ccc(Cl)s1 (stereo not shown) [Example 134]	
	1100	CC(C)(C)OC(=O)NC1CCCN(c2ccc(N3CC(CNC(=O)c4ccc(Cl)s4)OC3=O)cc2F)C1 (stereo not shown) [Example 135]	
	1200	CC1(N)CCN(c2ccc(N3CC(CNC(=O)c4ccc(Cl)s4)OC3=O)cc2F)CC1 (stereo not shown) [Example 136]	
	44	NC1CCCN(c2ccc(N3CC(CNC(=O)c4ccc(Cl)s4)OC3=O)cc2F)C1 (stereo not shown) [Example 137]	
	420	O=C(NCC1CN(c2ccc(NCCCO)cc2)C(=O)O1)c1ccc(Cl)s1 (stereo not shown) [Example 138]	
	1700	O=C(NCC1CN(c2ccc(-n3cccc3)cc2)C(=O)O1)c1ccc(Cl)s1 (stereo not shown) [Example 139]	
2200		NCc1ccc(N2CC(CNC(=O)c3ccc(Cl)s3)OC2=O)cc1 (stereo not shown) [Example 148, N-({3-[4-(Aminomethyl)phenyl]-2-oxo-1,3-oxazolidin-5-yl}methyl)-5-chloro-2-thiophenecarboxamide]	
2000		Nc1ccc(N2CC(CNC(=O)c3ccc(Cl)s3)OC2=O)cc1 (stereo not shown) [Example 149, N-{[3-(4-Aminophenyl)-2-oxo-1,3-oxazolidin-5-yl]methyl}-5-chloro-2-thiophenecarboxamide]	
2000		NCC(=O)Nc1ccc(N2CC(CNC(=O)c3ccc(Cl)s3)OC2=O)cc1 (stereo not shown) [Example 150, 5-Chloro-N-({3-[4-(glycylamino)phenyl]-2-oxo-1,3-oxazolidin-5-yl}methyl)-2-thiophenecarboxamide]	
2000		NCC1CN(c2ccc(N3CCCC3=O)cc2)C(=O)O1 (stereo not shown) [Example 151, 5-(Aminomethyl)-3-[4-(2-oxo-1-pyrrolidinyl)phenyl]-1,3-oxazolidin-2-one]	
600		CC(=O)NCc1ccc(N2CC(CNC(=O)c3ccc(Cl)s3)OC2=O)cc1 (stereo not shown) [Example 153, N-[(3-{4-[(Acetylamino)methyl]phenyl}-2-oxo-1,3-oxazolidin-5-yl)methyl]-5-chloro-2-thiophenecarboxamide]	
1300		NC(=O)NCc1ccc(N2CC(CNC(=O)c3ccc(Cl)s3)OC2=O)cc1 (stereo not shown) [Example 154, N-{[3-(4-{[(Aminocarbonyl)amino]methyl}phenyl)-2-oxo-1,3-oxazolidin-5-yl]-methyl}-5-chloro-2-thiophenecarboxamide]	
1200		CC(=O)Nc1ccc(N2CC(CNC(=O)c3ccc(Cl)s3)OC2=O)cc1 (stereo not shown) [Example 155, N-({3-[4-(Acetylamino)phenyl]-2-oxo-1,3-oxazolidin-5-yl}methyl)-5-chloro-2-thiophenecarboxamide]	
1300		O=C(Nc1ccc(N2CC(CNC(=O)c3ccc(Cl)s3)OC2=O)cc1)c1cccs1 (stereo not shown) [Example 156, 5-Chloro-N-[(2-oxo-3-{4-[(2-thienylcarbonyl)amino]phenyl}-1,3-oxazolidin-5-yl)methyl]-2-thiophenecarboxamide]	
730		COCC(=O)Nc1ccc(N2CC(CNC(=O)c3ccc(Cl)s3)OC2=O)cc1 (stereo not shown) [Example 157, 5-Chloro-N-[(3-{4-[(methoxyacetyl)amino]phenyl}-2-oxo-1,3-oxazolidin-5-yl)-methyl]-2-thiophenecarboxamide]	
460		Cc1noc(C)c1C(=O)Nc1ccc(N2CC(CNC(=O)c3ccc(Cl)s3)OC2=O)cc1 (stereo not shown) [Example 158, N-{4-[5-({[(5-Chloro-2-thienyl)carbonyl]amino}methyl)-2-oxo-1,3-oxazolidin-3-yl]phenyl}-3,5-dimethyl-4-isoxazolecarboxamide]	
1700		O=C(NCC1CN(c2ccc(NS(=O)(=O)CCCCl)cc2)C(=O)O1)c1ccc(Cl)s1 (stereo not shown) [Example 159, 5-Chloro-N-{[3-(4-{[(3-chloropropyl)sulfonyl]amino}phenyl)-2-oxo-1,3-oxazolidin-5-yl]methyl}-2-thiophenecarboxamide]	
140		O=C(NCC1CN(c2ccc(N3CCCS3(=O)=O)cc2)C(=O)O1)c1ccc(Cl)s1 (stereo not shown) [Example 160, 5-Chloro-N-({3-[4-(1,1-dioxido-2-isothiazolidinyl)phenyl]-2-oxo1,3-oxazolidin-5-yl}methyl)-2-thiophenecarboxamide]	
